# Measurements as given in patent US7776844B2, “N-(phosphonoalkyl)-amino acids, derivatives thereof and compositions and methods of use” (priority 2006, dated 2010).
# Where two headings read alike, the source gives them in different places.
# Key:
# [1] = tested on: hyperpigmented dark skin; assay: Topical skin lightening of hyperpigmented dark skin, clinical evaluation; assay type: in vivo, human; conditions: 5% solution once every other day with occlusion
# Procedure: (§1) The present invention will now be described in more detail with reference to the following non-limiting examples. In the initial tests for comparative studies, a control vehicle was always included. It was discovered that all the vehicle controls gave the same results as that of the untreated skin sites; no detectable effects of the controls have been found as judged by clinical evaluation.
# (§2) For subjective disorders such as pain, itch or the like, the therapeutic effects were evaluated or judged by the subjects or patients; for example, if the pain or itch had disappeared within hours or days. For other detectable symptoms or syndromes, the therapeutic effects or improvements were evaluated or judged by medical professionals.
# A subject who had hyperpigmented dark skin, topically applied 5% N-(phosphonomethyl)-DL-asparagine cream prepared according to Example 7 to an involved skin site twice daily for four weeks. […] The treated site was 25% lighter in skin color in contrast to the untreated or vehicle control as judged by clinical evaluation. After four weeks of topical application, the treated site had substantial reduction in skin pigmentation. The treated site was 50% lighter in contrast to the untreated or vehicle control in skin color as judged by clinical evaluation.
# A subject who had hyperpigmented dark skin, topically applied the above 5% N-(phosphonomethyl)-DL-asparagine solution to an involved skin site once every other day with occlusion for ten days. […] The treated site was 25% lighter in skin color as judged by clinical evaluation. After ten days of topical application, the treated site had substantial reduction in skin pigmentation. The treated site was 50% lighter in skin color in contrast to the untreated or vehicle control as judged by clinical evaluation.
# A subject who had hyperpigmented dark skin, topically applied the above 5% N-(phosphonomethyl)-creatine solution to an involved skin site once every other day with occlusion for two weeks. […] The treated site was 25% lighter in skin color in contrast to the untreated or vehicle control as judged by clinical evaluation. After two weeks of topical application, the treated site had very substantial reduction in skin pigmentation. The treated site was 75% lighter in skin color in contrast to the untreated or vehicle control as judged by clinical evaluation.
# A subject who had hyperpigmented dark skin, topically applied the above 5% N-(phosphonomethyl)-glycinamide solution to an involved skin site once every other day with occlusion for two weeks. […] The treated site was 25% lighter in skin color in contrast to the untreated or vehicle control as judged by clinical evaluation. After two weeks of topical application, the treated site had substantial reduction in skin pigmentation. The treated site was 50% lighter in skin color in contrast to the untreated or vehicle control as judged by clinical evaluation.
# A subject who had hyperpigmented dark skin, topically applied the above 5% N-(phosphonomethyl)-L-glutamine solution to an involved skin site once every other day with occlusion for two weeks. After two weeks of topical application, the treated site had substantial reduction in skin pigmentation. The treated site had 50% lighter in skin color in contrast to the untreated or vehicle control as judged by clinical evaluation.
# [2] = tested on: X-linked ichthyosis with severe dry skin; assay: Topical treatment of X-linked ichthyosis / severe dry skin, clinical evaluation; assay type: in vivo; conditions: Homo sapiens, read-out: improvement in contrast to untreated or vehicle control, clinical evaluation
# Excerpt: For example, human subjects having severe dry skin or ichthyosis, topically applied 1%-5% N-(phosphonomethyl)-glycine creams to lesions for 2 to 3 weeks. After 2 to 3 weeks of topical application, the thick and scaly skin disappeared and the skin became smooth and normal in appearance. Clinical evaluation was judged to be 90% to 100% improvement compared to the untreated condition or when using a vehicle control.
# as §1, §2
# N-(phosphonomethyl)-glycine (5 g) was suspended in water (30 ml) and propylene glycol (10 ml), and concentrated ammonium hydroxide (2 ml) was added with stirring. The suspension became a clear solution, and was mixed with hydrophilic ointment (oil-in-water emulsion, 53 g). The white cream thus formulated had pH 3.8 and contained 5% N-(phosphonomethyl)-glycine. A subject who had X-linked ichthyosis with severe dry skin, having thick and rough skin with adherent scales, topically applied the above 5% N-(phosphonomethyl)-glycine cream to an involved skin site twice daily for two weeks. After one week of topical application, the adherent scales disappeared, and the skin became smooth and had 50% improvement in contrast to the untreated or vehicle control as judged by clinical evaluation. After two weeks of topical application, the treated skin became normal in appearance, and had 100% improvement in contrast to the untreated or vehicle control as judged by clinical evaluation.
# A subject who had X-linked ichthyosis with severe dry skin, having thick and rough skin with adherent scales, topically applied the above 5% N-(phosphonomethyl)imino-diacetic acid cream to an involved skin site twice daily for two weeks. After one week of topical application, most adherent scales disappeared and the skin had 50% improvement in contrast to the untreated or vehicle control as judged by clinical evaluation. After two weeks of topical application, the scales disappeared completely and the treated skin became smooth, and had 90% improvement in contrast to the untreated or vehicle control as judged by clinical evaluation.
# A subject who had X-linked ichthyosis with severe dry skin, having thick and rough skin with adherent scales, topically applied the above 5% N-(phosphonomethyl)-L-tyrosine cream to an involved skin site twice daily for 12 days. After 12 days of topical application, most adherent scales disappeared and the skin became smooth, and had 75% improvement in contrast to the untreated or vehicle control as judged by clinical evaluation.
# A subject who had X-linked ichthyosis having thick and rough skin with adherent scales, topically applied the 5% N-(phosphonomethyl)-DL-asparagine cream to an involved skin site twice daily for three weeks. After one week of topical application, most adherent scales disappeared and the treated site appeared smooth. The skin had 75% improvement in contrast to the untreated or vehicle control as judged by clinical evaluation. After three weeks of topical application, the scales disappeared completely and the treated site felt smooth and normal in appearance. The skin had 100% improvement in contrast to the untreated or vehicle control as judged by clinical evaluation. […]
# [3] = tested on: itchy eczema; assay: Topical relief of itch in itchy eczema, judged by subject; assay type: in vivo, human; conditions: 7% cream
# Procedure: as §1, §2
# A subject, having itchy eczema on their right thigh, topically applied the above 8% N-(phosphonomethyl)-L-proline ethyl ester cream. […] Therapeutic evaluation was judged to be 100% effective in contrast to the untreated or vehicle control for immediate relief of itch.
# A subject, having itchy eczema on their left leg, topically applied 7% N-(phosphonomethyl)-creatine cream prepared according to Example 17. […] Therapeutic evaluation was judged to be 100% effective in contrast to the untreated or vehicle control for immediate relief of itch.
# A subject, having itchy eczema on their left thigh, topically applied the above 10% N-(phosphonomethyl)-glutamine. […] Therapeutic evaluation was judged to be 100% effective in contrast to the untreated or vehicle control for immediate relief of itch.
# [4] = tested on: chronic plaque psoriasis; assay: Topical treatment of chronic plaque psoriasis lesion, clinical evaluation; assay type: in vivo; conditions: Homo sapiens, 336 h, read-out: improvement in contrast to untreated or vehicle control, clinical evaluation
# Procedure: as §1, §2
# A subject had chronic plaque psoriasis with erythema, moderately thick and silvery scales. The subject topically applied twice daily the above white cream containing 5% N-(phosphonomethyl)-glycine ethyl ester to one psoriatic lesion for two weeks. At the end of two weeks, the erythema and silvery scales improved substantially, and the treated skin had 50% improvement in contrast to the untreated or vehicle control as judged by clinical evaluation.
# A subject had chronic plaque psoriasis with erythema, moderately thick and silvery scales. The subject topically applied twice daily the above white cream containing 10% N-(phosphonomethyl)-L-proline to one psoriatic lesion for two weeks. At the end of two weeks, the erythema and silvery scales improved very substantially, and the treated skin had 75% improvement in contrast to the untreated or vehicle control as judged by clinical evaluation.
# A subject had chronic plaque psoriasis with erythema, moderately thick and silvery scales. The subject topically applied twice daily the above white cream containing 5% N-(phosphonomethyl)-glycine propyl ester to one psoriatic lesion for two weeks. At the end of two weeks, the erythema and silvery scales improved very substantially, and the treated skin had 75% improvement in contrast to the untreated or vehicle control as judged by clinical evaluation.
# A subject had chronic plaque psoriasis with erythema, moderately thick and silvery scales. The subject topically applied twice daily the above white cream containing 5% N-(phosphonomethyl)-glycine isopropyl ester to one psoriatic lesion for a week. At the end of one week, the erythema and silvery scales improved substantially, and the treated skin had 50% improvement in contrast to the untreated or vehicle control as judged by clinical evaluation.
# A subject had chronic plaque psoriasis with erythema, moderately thick and silvery scales. The subject topically applied twice daily the above white cream containing 8% N-(phosphonomethyl)-glycinamide to one psoriatic lesion for three weeks. At the end of three weeks, the erythema and silvery scales disappeared almost completely, and the treated skin had 90% improvement in contrast to the untreated or vehicle control as judged by clinical evaluation.
# A subject had chronic plaque psoriasis with erythema, moderately thick and silvery scales. The subject topically applied twice daily the above white cream containing 5% N-(phosphonomethyl)-L-tyrosine ethyl ester to one psoriatic lesion for two weeks. At the end of two weeks, the erythema and silvery scales improved noticeably and the treated skin had 25% improvement in contrast to the untreated or vehicle control as judged by clinical evaluation.
# A subject had chronic plaque psoriasis with erythema, moderately thick and silvery scales. The subject topically applied twice daily the above white cream containing 10% N-(phosphonomethyl)-D-4-hydroxyphenylglycine to one psoriatic lesion for two weeks. […]
smiles,measurement,setting,value
CN(CC(=O)O)C(=N)NCP(=O)(O)O [N-(phosphonomethyl)-creatine],"treated site lighter in skin color, clinical evaluation",[1]; after seven days,25%
same,"treated site lighter in skin color, clinical evaluation",[1]; after two weeks,75%
same,inhibition in vivo at 5 %,[2]; 240 h,50%
same,inhibition in vivo at 5 %,[2]; 336 h,100%
same,time the treated skin did not itch after application,[3],8 h
same,time until itch disappeared after topical application,[3],within a few minutes
same,"therapeutic evaluation, effective for immediate relief of itch",[3]; single topical application,100%
same,inhibition in vivo at 5 %,[4],50%
